In the assay the test system is pentagastrin-stimulated acid secretion of the perfused rat stomach. Particulars: anesthetized CD rat, female; dose 1 μmol/kg i.d. (intraduodenal); pentagastrin 1 μg/kg i.v. infusion. Here is the method: The abdomen of anesthetized rats (CD rat, female, 200-250 g; 1.5 g/kg i.m. urethane) was opened after tracheotomy by a median upper abdominal incision and a PVC catheter was fixed transorally in the esophagus and another via the pylorus such that the ends of the tubes just projected into the gastric lumen. The catheter leading from the pylorus led outward into the right abdominal wall through a side opening.
After thorough rinsing (about 50-100 ml), warm (37° C.) physiological NaCl solution was continuously passed through the stomach (0.5 ml/min, pH 6.8-6.9; Braun-Unita I). The pH (pH meter 632, glass electrode EA 147; φ=5 mm, Metrohm) and, by titration with a freshly prepared 0.01 N NaOH solution to pH 7 (Dosimat 665 Metrohm), the secreted HCl were determined in the effluent in each case collected at an interval of 15 minutes.
The gastric secretion was stimulated by continuous infusion of […] (=1.65 ml/h) of i.v. pentagastrin (left femoral vein) about 30 min after the end of the operation (i.e. after determination of 2 preliminary fractions). The substances to be tested were administered intraduodenally in a 2.5 ml/kg liquid volume 60 min after the start of the continuous pentagastrin infusion. The body temperature of the animals was kept at a constant 37.8-38° C. by infrared irradiation and heat pads (automatic, stepless control by means of a rectal temperature sensor).

Bounds are passed on as bounds.

Regarding `Cc1nc2c3c(ccn2c1C)C(c1ccccc1)C(O)C(F)(F)O3` [Example 1, (8R,9R)-7,7-Difluoro-2,3-dimethyl-8-hydroxy-9-phenyl-7H-8,9-dihydro-pyrano[2,3-c]imidazo[1,2-a]pyridine], the “Inhibition of acid secretion (%)” value was above 85%.

For `CC(=O)OC1C(c2ccccc2)c2ccn3c(C)c(C)nc3c2OC1(F)F` [Example 2, (8R,9R)-8-Acetoxy-7,7-difluoro-2,3-dimethyl-9-phenyl-7H-8,9-dihydro-pyrano[2,3-c]imidazo[1,2-a]pyridine], the “Inhibition of acid secretion (%)” value is on record as above 85%.

In the case of `COCC(=O)O[C@@H]1[C@@H](c2ccccc2)Oc2c(ccn3c(C)c(C)nc23)C1(F)F` [Example 8, (8R,9R)-7,7-Difluoro-2,3-dimethyl-8-(2-methoxy-acetyloxy)-9-phenyl-7H-8,9-dihydro-pyrano[2,3-c]imidazo[1,2-a]pyridine], the “Inhibition of acid secretion (%)” value is listed as above 85%.

For the molecule `Cc1nc2c3c(ccn2c1C)C(c1ccccc1)C(OC(=O)CN(C)C)C(F)(F)O3` [Example 9, (8R,9R)-7,7-Difluoro-2,3-dimethyl-8-(2-dimethylamino-acetyloxy)-9-phenyl-7H-8,9-dihydro-pyrano[2,3-c]imidazo[1,2-a]pyridine], the “Inhibition of acid secretion (%)” value is above 85%.

For the molecule `COC(=O)O[C@@H]1[C@@H](c2ccccc2)Oc2c(ccn3c(C)c(C)nc23)C1(F)F` [Example 10, (8R,9R)-7,7-Difluoro-2,3-dimethyl-8-(methoxy-carbonyloxy)-9-phenyl-7H-8,9-dihydro-pyrano[2,3-c]imidazo[1,2-a]pyridine], the “Inhibition of acid secretion (%)” value was above 85%.

The record behind these values is patent publication US20080114020A1, “Difluoro-Substituted Imidazopyridines” (Altana Pharma AG, priority 2004, published 2008).
